# According to ChEMBL document CHEMBL4507279, “Data for DCP probe BI-9627” (2021):
# Experiments:
# [1] = system: Receptor-type tyrosine-protein kinase FLT3 (Homo sapiens), P36888 [UNDEFINED MUTATION]; details: Compound concentration 1000.0 nM
# [2] = molecular target: Interleukin-1 receptor-associated kinase 4 (Homo sapiens) (UniProt Q9NWZ3); details: Compound concentration 1000.0 nM
# [3] = molecular target: Citron Rho-interacting kinase (Homo sapiens) (UniProt O14578); details: Compound concentration 1000.0 nM
# [4] = molecular target: Serine/threonine-protein kinase OSR1 (Homo sapiens) (UniProt O95747); details: Compound concentration 1000.0 nM
# [5] = molecular target: MAP kinase-activated protein kinase 2 (Homo sapiens) (UniProt P49137); details: Compound concentration 1000.0 nM
# [6] = molecular target: Serine/threonine-protein kinase NIM1 (Homo sapiens) (UniProt Q8IY84); details: Compound concentration 1000.0 nM
# [7] = system: Phosphatidylinositol 4,5-bisphosphate 3-kinase catalytic subunit alpha isoform (Homo sapiens), P42336 [I800L]; details: Compound concentration 1000.0 nM
# [8] = system: Epidermal growth factor receptor (Homo sapiens), P00533 [L861Q]; details: Compound concentration 1000.0 nM
# [9] = molecular target: Tyrosine-protein kinase CSK (Homo sapiens) (UniProt P41240); details: Compound concentration 1000.0 nM
# [10] = system: Epidermal growth factor receptor (Homo sapiens), P00533 [UNDEFINED MUTATION]; details: Compound concentration 1000.0 nM
# [11] = molecular target: cGMP-dependent protein kinase 1 (Homo sapiens) (UniProt Q13976); details: Compound concentration 1000.0 nM
# [12] = molecular target: Receptor-type tyrosine-protein kinase FLT3 (Homo sapiens) (UniProt P36888); details: Compound concentration 1000.0 nM
# [13] = molecular target: Phosphatidylinositol 4-phosphate 5-kinase type-1 gamma (Homo sapiens) (UniProt O60331); details: Compound concentration 1000.0 nM
# [14] = molecular target: Dual specificity mitogen-activated protein kinase kinase 3 (Homo sapiens) (UniProt P46734); details: Compound concentration 1000.0 nM
# [15] = molecular target: GABA-A receptor; anion channel (Rattus norvegicus) (UniProt O09028+P15431+P18506+P18508+P19969+P20236+P23574+P23576+P28471+P28473+P30191+P62813+P63079+P63138+Q91ZM7+Q9ES14); details: Compound concentration 10.0 uM
# [16] = molecular target: Phosphatidylinositol 4-phosphate 5-kinase type-1 alpha (Homo sapiens) (UniProt Q99755); details: Compound concentration 1000.0 nM
# [17] = system: Tyrosine-protein kinase ABL1 (Homo sapiens), P00519 [Y253F]; details: Compound concentration 1000.0 nM
# [18] = molecular target: Mitogen-activated protein kinase kinase kinase kinase 3 (Homo sapiens) (UniProt Q8IVH8); details: Compound concentration 1000.0 nM
# [19] = molecular target: Homeodomain-interacting protein kinase 3 (Homo sapiens) (UniProt Q9H422); details: Compound concentration 1000.0 nM
# [20] = molecular target: Phosphorylase b kinase gamma catalytic chain, skeletal muscle/heart isoform (Homo sapiens) (UniProt Q16816); details: Compound concentration 1000.0 nM
# [21] = molecular target: Glycogen synthase kinase-3 alpha (Homo sapiens) (UniProt P49840); details: Compound concentration 1000.0 nM
# [22] = molecular target: Serine/threonine-protein kinase Chk1 (Homo sapiens) (UniProt O14757); details: Compound concentration 1000.0 nM
# [23] = molecular target: Platelet-derived growth factor receptor beta (Homo sapiens) (UniProt P09619); details: Compound concentration 1000.0 nM
# [24] = molecular target: Cyclin-dependent kinase-like 3 (Homo sapiens) (UniProt Q8IVW4); details: Compound concentration 1000.0 nM
# [25] = molecular target: Cyclin-dependent kinase-like 2 (Homo sapiens) (UniProt Q92772); details: Compound concentration 1000.0 nM
# [26] = system: Receptor-type tyrosine-protein kinase FLT3 (Homo sapiens), P36888 [K663Q]; details: Compound concentration 1000.0 nM
# [27] = molecular target: Serine/threonine-protein kinase Nek10 (Homo sapiens) (UniProt Q6ZWH5); details: Compound concentration 1000.0 nM
# [28] = molecular target: Receptor tyrosine-protein kinase erbB-2 (Homo sapiens) (UniProt P04626); details: Compound concentration 1000.0 nM
# [29] = molecular target: SRSF protein kinase 2 (Homo sapiens) (UniProt P78362); details: Compound concentration 1000.0 nM
# [30] = molecular target: Mitogen-activated protein kinase 3 (Homo sapiens) (UniProt P27361); details: Compound concentration 1000.0 nM
# [31] = molecular target: Dual specificity protein kinase CLK4 (Homo sapiens) (UniProt Q9HAZ1); details: Compound concentration 1000.0 nM
# [32] = molecular target: Serine/threonine-protein kinase WNK1 (Homo sapiens) (UniProt Q9H4A3); details: Compound concentration 1000.0 nM
# [33] = molecular target: Serine/threonine-protein kinase PAK 1 (Homo sapiens) (UniProt Q13153); details: Compound concentration 1000.0 nM
# [34] = molecular target: Serine/threonine-protein kinase ULK3 (Homo sapiens) (UniProt Q6PHR2); details: Compound concentration 1000.0 nM
# [35] = molecular target: D(1B) dopamine receptor (Homo sapiens) (UniProt P21918); details: Compound concentration 10.0 uM
# [36] = system: Tyrosine-protein kinase ABL1 (Homo sapiens), P00519 [M351T]; details: Compound concentration 1000.0 nM
# [37] = molecular target: Tyrosine-protein kinase TXK (Homo sapiens) (UniProt P42681); details: Compound concentration 1000.0 nM
# [38] = molecular target: Serine/threonine-protein kinase N1 (Homo sapiens) (UniProt Q16512); details: Compound concentration 1000.0 nM
# [39] = molecular target: Protein kinase C epsilon type (Homo sapiens) (UniProt Q02156); details: Compound concentration 1000.0 nM
# [40] = system: Phosphatidylinositol 4,5-bisphosphate 3-kinase catalytic subunit alpha isoform (Homo sapiens), P42336 [E545A]; details: Compound concentration 1000.0 nM
# [41] = molecular target: Tyrosine-protein kinase JAK1 (Homo sapiens) (UniProt P23458); details: Compound concentration 1000.0 nM
# [42] = molecular target: Tyrosine-protein kinase SYK (Homo sapiens) (UniProt P43405); details: Compound concentration 1000.0 nM
# [43] = molecular target: Epidermal growth factor receptor (Homo sapiens) (UniProt P00533); details: Compound concentration 1000.0 nM
# Sequence of Serine/threonine-protein kinase OSR1 (Homo sapiens) (O95747 2-527 limits assumed): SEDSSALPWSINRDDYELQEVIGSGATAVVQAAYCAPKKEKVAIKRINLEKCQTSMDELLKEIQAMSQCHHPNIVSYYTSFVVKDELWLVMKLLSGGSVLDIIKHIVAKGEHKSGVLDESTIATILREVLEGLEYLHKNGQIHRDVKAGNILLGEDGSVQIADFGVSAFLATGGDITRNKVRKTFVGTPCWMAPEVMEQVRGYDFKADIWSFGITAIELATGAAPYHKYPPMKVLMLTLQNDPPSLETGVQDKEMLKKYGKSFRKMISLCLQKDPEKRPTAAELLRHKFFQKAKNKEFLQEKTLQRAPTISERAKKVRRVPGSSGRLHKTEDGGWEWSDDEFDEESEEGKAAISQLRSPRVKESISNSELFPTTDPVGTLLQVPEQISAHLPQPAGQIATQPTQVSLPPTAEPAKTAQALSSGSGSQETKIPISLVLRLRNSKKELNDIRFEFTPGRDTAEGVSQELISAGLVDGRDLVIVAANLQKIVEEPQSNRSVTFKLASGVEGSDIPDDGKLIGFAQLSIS
# Sequence of MAP kinase-activated protein kinase 2 (Homo sapiens) (P49137 whole entry, looked up): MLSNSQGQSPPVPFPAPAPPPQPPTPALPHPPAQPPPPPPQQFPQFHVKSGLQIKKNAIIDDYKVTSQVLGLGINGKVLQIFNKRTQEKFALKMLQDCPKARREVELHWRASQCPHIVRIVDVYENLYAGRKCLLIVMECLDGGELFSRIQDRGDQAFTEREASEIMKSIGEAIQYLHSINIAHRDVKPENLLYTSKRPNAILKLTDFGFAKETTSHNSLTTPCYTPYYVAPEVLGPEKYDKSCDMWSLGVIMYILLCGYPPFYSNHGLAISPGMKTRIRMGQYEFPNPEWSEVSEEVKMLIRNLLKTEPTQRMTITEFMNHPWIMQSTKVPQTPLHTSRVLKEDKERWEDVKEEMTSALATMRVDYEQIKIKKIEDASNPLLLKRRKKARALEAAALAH
# Sequence of Serine/threonine-protein kinase N1 (Homo sapiens) (Q16512 2-942 limits assumed): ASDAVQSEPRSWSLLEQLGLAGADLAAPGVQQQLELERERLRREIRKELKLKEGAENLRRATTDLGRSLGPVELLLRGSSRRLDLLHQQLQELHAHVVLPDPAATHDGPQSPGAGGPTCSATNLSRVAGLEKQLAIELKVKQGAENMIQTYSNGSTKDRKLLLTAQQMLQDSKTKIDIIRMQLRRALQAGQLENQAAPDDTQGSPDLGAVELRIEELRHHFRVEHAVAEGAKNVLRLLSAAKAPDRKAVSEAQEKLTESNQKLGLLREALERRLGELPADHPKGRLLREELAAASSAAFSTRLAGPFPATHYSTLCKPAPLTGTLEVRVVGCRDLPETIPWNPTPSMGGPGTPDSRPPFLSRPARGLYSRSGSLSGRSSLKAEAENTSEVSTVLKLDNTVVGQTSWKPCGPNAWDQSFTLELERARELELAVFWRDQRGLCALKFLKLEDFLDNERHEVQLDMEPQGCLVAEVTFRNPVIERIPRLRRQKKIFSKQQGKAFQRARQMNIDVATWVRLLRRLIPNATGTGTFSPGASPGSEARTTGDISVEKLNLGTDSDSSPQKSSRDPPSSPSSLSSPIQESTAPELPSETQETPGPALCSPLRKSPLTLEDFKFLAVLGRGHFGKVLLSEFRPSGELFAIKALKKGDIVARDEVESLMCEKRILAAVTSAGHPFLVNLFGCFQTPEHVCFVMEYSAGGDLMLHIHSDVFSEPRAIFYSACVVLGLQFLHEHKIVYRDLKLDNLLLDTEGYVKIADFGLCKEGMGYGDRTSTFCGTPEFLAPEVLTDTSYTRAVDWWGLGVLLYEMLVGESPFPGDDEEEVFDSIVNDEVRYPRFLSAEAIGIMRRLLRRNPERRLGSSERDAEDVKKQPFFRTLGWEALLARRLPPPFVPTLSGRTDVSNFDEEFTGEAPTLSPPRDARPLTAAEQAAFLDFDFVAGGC
# Sequence of Citron Rho-interacting kinase (Homo sapiens) (O14578 whole entry): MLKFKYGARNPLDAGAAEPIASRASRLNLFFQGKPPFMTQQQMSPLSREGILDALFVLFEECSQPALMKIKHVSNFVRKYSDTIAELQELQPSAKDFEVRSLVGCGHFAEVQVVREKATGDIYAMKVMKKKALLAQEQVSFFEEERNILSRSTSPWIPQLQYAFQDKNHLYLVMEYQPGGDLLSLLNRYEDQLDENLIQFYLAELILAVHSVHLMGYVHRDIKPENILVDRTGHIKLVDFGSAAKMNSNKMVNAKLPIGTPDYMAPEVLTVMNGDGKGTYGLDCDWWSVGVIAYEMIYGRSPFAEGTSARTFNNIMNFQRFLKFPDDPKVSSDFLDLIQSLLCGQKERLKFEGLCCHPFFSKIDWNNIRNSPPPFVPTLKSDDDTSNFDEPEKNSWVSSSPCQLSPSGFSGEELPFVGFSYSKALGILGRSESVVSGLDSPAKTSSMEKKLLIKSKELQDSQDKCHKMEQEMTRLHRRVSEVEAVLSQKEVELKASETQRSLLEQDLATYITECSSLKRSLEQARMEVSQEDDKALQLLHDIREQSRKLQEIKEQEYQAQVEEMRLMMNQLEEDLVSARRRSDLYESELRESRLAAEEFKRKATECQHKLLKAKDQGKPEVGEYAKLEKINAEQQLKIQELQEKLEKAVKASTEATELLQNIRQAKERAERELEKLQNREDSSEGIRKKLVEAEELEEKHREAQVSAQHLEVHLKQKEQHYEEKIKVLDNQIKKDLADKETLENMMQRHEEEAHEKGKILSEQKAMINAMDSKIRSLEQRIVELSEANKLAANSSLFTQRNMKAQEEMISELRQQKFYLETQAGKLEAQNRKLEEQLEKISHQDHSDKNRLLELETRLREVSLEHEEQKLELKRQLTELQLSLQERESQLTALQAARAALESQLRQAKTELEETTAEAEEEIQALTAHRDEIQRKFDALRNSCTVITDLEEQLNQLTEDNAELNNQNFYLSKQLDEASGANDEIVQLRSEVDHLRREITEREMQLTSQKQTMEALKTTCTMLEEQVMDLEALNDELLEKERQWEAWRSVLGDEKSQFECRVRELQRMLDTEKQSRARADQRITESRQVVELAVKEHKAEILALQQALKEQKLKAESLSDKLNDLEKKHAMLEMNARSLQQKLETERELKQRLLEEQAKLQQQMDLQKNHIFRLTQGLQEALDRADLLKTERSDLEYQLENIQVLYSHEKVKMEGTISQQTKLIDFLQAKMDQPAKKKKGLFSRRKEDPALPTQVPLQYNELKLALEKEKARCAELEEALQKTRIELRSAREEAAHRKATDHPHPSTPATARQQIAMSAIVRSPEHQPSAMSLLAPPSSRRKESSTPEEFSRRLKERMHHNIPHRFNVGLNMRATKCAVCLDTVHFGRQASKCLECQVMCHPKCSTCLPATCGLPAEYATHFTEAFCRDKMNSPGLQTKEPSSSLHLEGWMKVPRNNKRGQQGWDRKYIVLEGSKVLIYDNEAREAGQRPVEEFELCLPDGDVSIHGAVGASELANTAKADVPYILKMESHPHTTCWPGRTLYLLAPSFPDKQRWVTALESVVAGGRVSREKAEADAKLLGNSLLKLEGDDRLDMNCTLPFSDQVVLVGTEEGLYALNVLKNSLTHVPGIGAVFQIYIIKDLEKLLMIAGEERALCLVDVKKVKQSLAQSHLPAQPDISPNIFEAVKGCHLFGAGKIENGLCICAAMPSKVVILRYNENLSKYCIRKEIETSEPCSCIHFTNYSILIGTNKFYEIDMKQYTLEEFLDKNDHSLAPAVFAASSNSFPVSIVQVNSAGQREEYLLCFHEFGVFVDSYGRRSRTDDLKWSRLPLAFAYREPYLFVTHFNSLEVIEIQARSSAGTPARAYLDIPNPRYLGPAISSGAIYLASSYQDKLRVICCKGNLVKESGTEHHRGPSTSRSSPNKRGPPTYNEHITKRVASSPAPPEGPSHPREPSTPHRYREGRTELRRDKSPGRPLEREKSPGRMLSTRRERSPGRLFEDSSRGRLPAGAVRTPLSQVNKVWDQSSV
# Sequence of Tyrosine-protein kinase JAK1 (Homo sapiens) (P23458 whole entry): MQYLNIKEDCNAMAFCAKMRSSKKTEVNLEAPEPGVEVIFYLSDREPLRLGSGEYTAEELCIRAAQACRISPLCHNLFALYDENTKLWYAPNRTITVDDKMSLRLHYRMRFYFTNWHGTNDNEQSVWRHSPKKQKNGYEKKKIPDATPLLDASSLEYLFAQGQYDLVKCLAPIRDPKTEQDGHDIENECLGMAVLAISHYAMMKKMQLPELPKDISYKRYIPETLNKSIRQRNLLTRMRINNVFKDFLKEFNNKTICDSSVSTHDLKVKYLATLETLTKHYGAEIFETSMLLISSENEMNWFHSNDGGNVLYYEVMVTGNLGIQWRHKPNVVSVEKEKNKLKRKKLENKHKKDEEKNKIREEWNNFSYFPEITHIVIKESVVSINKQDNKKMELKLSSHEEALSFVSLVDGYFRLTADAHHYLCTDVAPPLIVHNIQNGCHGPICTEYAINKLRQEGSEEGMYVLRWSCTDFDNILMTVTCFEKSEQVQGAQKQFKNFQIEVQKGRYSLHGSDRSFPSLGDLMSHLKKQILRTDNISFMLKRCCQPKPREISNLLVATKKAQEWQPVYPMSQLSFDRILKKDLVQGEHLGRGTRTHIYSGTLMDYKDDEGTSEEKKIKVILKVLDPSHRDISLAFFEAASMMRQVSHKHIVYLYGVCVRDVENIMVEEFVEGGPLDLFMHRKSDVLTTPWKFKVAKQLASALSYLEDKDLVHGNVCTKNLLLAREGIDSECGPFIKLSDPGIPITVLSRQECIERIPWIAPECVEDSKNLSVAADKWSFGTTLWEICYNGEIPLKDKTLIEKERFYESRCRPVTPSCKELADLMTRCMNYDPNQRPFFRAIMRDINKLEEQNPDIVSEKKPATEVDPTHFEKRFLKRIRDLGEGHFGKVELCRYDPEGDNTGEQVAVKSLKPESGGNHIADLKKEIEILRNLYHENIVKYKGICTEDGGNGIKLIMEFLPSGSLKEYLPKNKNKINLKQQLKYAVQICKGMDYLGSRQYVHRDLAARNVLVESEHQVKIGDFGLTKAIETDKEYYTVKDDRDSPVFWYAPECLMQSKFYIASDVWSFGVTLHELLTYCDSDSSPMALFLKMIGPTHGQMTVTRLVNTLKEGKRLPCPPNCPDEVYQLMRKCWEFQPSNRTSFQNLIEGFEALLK
smiles,measurement,setting,value
CC(=O)N1CCC(c2ccc(C(=O)NC(=N)N)cc2C(F)(F)F)CC1 [BI 9627],residual activity,[1],80%
same,residual activity,[2],100%
same,residual activity,[3],98%
same,residual activity,[4],100%
same,residual activity,[5],100%
same,residual activity,[6],100%
same,residual activity,[7],90%
same,residual activity,[8],91%
same,residual activity,[9],100%
same,residual activity,[10],100%
same,residual activity,[11],100%
same,residual activity,[12],100%
same,residual activity,[13],100%
same,residual activity,[14],100%
same,inhibition,[15],14.6%
same,residual activity,[16],94%
same,residual activity,[17],92%
same,residual activity,[18],100%
same,residual activity,[19],82%
same,residual activity,[20],100%
same,residual activity,[21],97%
same,residual activity,[22],95%
same,residual activity,[23],100%
same,residual activity,[24],100%
same,residual activity,[25],100%
same,residual activity,[26],100%
same,residual activity,[27],92%
same,residual activity,[28],92%
same,residual activity,[29],0%
same,residual activity,[30],100%
same,residual activity,[31],100%
same,residual activity,[32],100%
same,residual activity,[33],100%
same,residual activity,[34],80%
same,inhibition,[35],-8.21%
same,residual activity,[36],100%
same,residual activity,[37],100%
same,residual activity,[38],87%
same,residual activity,[39],100%
same,residual activity,[40],100%
same,residual activity,[41],100%
same,residual activity,[42],100%
same,residual activity,[43],100%
CC(=O)N1CCC(c2ccc(C(=O)NC3=NCCN3)cc2C(F)(F)F)CC1 [BI 0054],residual activity,[1],88%
same,residual activity,[2],89%
same,residual activity,[3],100%
same,residual activity,[4],100%
same,residual activity,[5],100%
same,residual activity,[6],100%
same,residual activity,[7],94%
same,residual activity,[8],100%
same,residual activity,[9],100%
same,residual activity,[10],100%
same,residual activity,[11],100%
same,residual activity,[12],100%
same,residual activity,[13],99%
same,residual activity,[14],87%
same,inhibition,[15],17%
same,residual activity,[16],100%
same,residual activity,[17],90%
same,residual activity,[18],95%
same,residual activity,[19],72%
same,residual activity,[20],100%
same,residual activity,[21],78%
same,residual activity,[22],100%
same,residual activity,[23],95%
same,residual activity,[24],100%
same,residual activity,[25],100%
same,residual activity,[26],100%
same,residual activity,[27],93%
same,residual activity,[28],100%
same,residual activity,[29],100%
same,residual activity,[30],100%
same,residual activity,[31],100%
same,residual activity,[32],99%
same,residual activity,[33],98%
same,residual activity,[34],89%
same,inhibition,[35],-9.82%
same,residual activity,[36],100%
same,residual activity,[37],82%
same,residual activity,[38],100%
same,residual activity,[39],84%
same,residual activity,[40],100%
same,residual activity,[41],100%
same,residual activity,[42],100%
same,residual activity,[43],100%
